According to patent US8119812B2, “Thiazolidinone derivative” (SBI Biotech Co., Ltd., priority 2009, dated 2012):

Tested on: HeLa cells
Experiment: Cell proliferation inhibitory activity, WST-1 assay, HeLa cells
Type: cell-based
Settings: FIG. 1; incubation for 24 hours after adding compound; absorbance at 450 nm (WST-1); cell line not given
Experimental: Cell proliferation inhibitory activity of the thiazolidinone derivatives shown in Tables 2 to 21 and 26 to 29 were evaluated according to the following procedure.
HeLa cells (ATCC) were cultured in a medium (DMEM-10% FCS-Penicillin/Streptomycin) on 10-cm dishes. The medium was removed from the HeLa cells (ATCC) in healthy growth conditions (70 to 90% confluent), the cells were detached by treating with 2 ml of trypsin (TrypL Express, GIBCO), and then the cells were collected using the same medium.
After the collected cells were suspended in the medium at a concentration of 5×10^4 cells/mL, 100 μL, each of the cells were seeded on 96-well plates (FALCON, 3530) at a concentration of 5×10^3 […]. Each medium alone without cells was added to the blank wells. The wells were incubated in a 5% CO2 incubator. The culture media used are as follows.
HeLa cells: DMEM-10% FCS-Penicillin/Streptomycin,
The following day after the start of culturing, the medium was replaced with that including candidate compounds. At the beginning, the candidate compounds were diluted with DMSO, and a 10-step dilution series from 0 μM to 12.5 mM was prepared. 249 μL of the medium was added to 1.5-ml tubes. Then, 1 μL of the compound diluted with DMSO was added thereto at each concentration, and this was mixed. By this procedure, the ratio of DMSO included becomes 1/250. More specifically, in case of the following dilution series, the final concentrations of candidate compounds are as follows.
After removing the medium in wells, each candidate compound was added in duplicate to each well at a volume of 100 μL per one concentration. […]
On the next day or the day after the next day (24 to 48 hours later), 10 μL of Cell Proliferation Reagent WST-1 (ROCHE) was added to each well. […] The formed pigment can be assayed by measuring the absorbance at 450 nm. After incubation for an hour in a CO2 incubator, the absorbance at 450 nm was measured using a microplate reader. The values were evaluated by subtracting the blank value, and plotted by curve-fitting using the Prism software, and IC50 was calculated.

With COC(=O)N(C)CCOc1ccc(/N=C2/NC(=O)/C(=C/c3cnc(NC(=O)C4CC4)s3)S2)c(C)c1 [Compound 137, (2Z,5Z)-N-(2-{4-[(5-{[2-(cyclopropylcarbonylamino) (1,3-thiazol-5-yl)]methylene}-4-oxo(1,3-thiazolidin-2-ylidene))azamethyl]-3-methylphenoxy}ethyl) methoxy-N-methylcarboxamide] the cell proliferation-inhibiting effect was “strong inhibitory effect”.

With Cc1cc(OC2CCN(C)C2)ccc1/N=C1/NC(=O)/C(=C/c2cnc(NC(=O)C3CC3)s2)S1 (stereo not drawn) [Compound 139, (2Z,5Z)-cyclopropyl-N-{5-[(2-{[2-methyl-4-(1-methylpyrrolidin-3-yloxy)phenyl]azamethylene}-4-oxo(1,3-thiazolidin-5-ylidene))methyl] (1,3-thiazol-2-yl)}carboxamide] the cell proliferation-inhibiting effect was “strong inhibitory effect”.

For Cc1cc(OCCN(C)C)ccc1/N=C1/NC(=O)/C(=C/c2cnc(NC(=O)C3CC3)s2)S1 [Compound 119, (2Z,5Z)-N-(5{[2-({4-[2-(dimethylamino)ethoxy]-2-methylphenyl}azamethylene)-4-oxo(1,3-thiazolidin-5-ylidene)]methyl}(1,3-thiazol-2-yl))cyclopropylcarboxamide], the cell proliferation-inhibiting effect was “strong inhibitory effect”.
